Tests used:
[1] = biological target: T1, SALL4 (Homo sapiens, UniProt Q9UJQ4); experiment: Western blot of SALL4 in H9 hESC; type: cell-based; set-up: endogenous in cells; host or cells: Kelly, H9 hESC, SK-N-DZ cells; conditions: increasing doses, 24 h
[2] = test system: RTN4; experiment: Rescue proteomics SK-N-DZ cells: RTN4 abundance; conditions: 1 µM pomalidomide, 5 h vs DMSO, rescue experiment (source data 13)
[3] = biological target: DTWD1 (Homo sapiens, UniProt Q8N5C7+Q96SW2); experiment: TMT proteomics H9 hESC: DTWD1 abundance; type: cell-based; conditions: H9 hES cells, 5 h vs DMSO; thalidomide 10 µM, lenalidomide 5 µM, pomalidomide 1 µM
From the text: (§1) We established a mass spectrometry-based workflow (Figure 1—figure supplement 1A) to detect IMiD-induced protein degradation in hESC.
(§2) Proteins were precipitated using methanol/chloroform.

[4] = biological target: T2, RAB28 (Homo sapiens, UniProt P51157); experiment: TMT proteomics MM1s cells: RAB28 abundance; conditions: 5 h vs DMSO, thalidomide 10 µM, lenalidomide 5 µM, pomalidomide 1 µM
[5] = biological target: T1, SALL4; experiment: Western blot of SALL4 in Kelly, SK-N-DZ, HEK293T and H661 cells; conditions: increasing concentrations, 24 h
[6] = test system: ILF3; experiment: Rescue proteomics SK-N-DZ cells: ILF3 abundance; conditions: 1 µM pomalidomide, 5 h vs DMSO, rescue experiment (source data 13)
[7] = biological target: T1, SALL4; experiment: TMT proteomics Kelly cells: SALL4 abundance; conditions: 5 h vs DMSO, thalidomide 10 µM, lenalidomide 5 µM, pomalidomide 1 µM
[8] = biological target: T3, VRTN (Homo sapiens, UniProt Q9H8Y1); experiment: TMT proteomics H9 hESC: VRTN abundance; type: cell-based; conditions: H9 hES cells, 5 h vs DMSO; thalidomide 10 µM, pomalidomide 1 µM
T3 construct: endogenous in cells; host or cells: H9 hESC
T3 sequence (Q9H8Y1 whole entry): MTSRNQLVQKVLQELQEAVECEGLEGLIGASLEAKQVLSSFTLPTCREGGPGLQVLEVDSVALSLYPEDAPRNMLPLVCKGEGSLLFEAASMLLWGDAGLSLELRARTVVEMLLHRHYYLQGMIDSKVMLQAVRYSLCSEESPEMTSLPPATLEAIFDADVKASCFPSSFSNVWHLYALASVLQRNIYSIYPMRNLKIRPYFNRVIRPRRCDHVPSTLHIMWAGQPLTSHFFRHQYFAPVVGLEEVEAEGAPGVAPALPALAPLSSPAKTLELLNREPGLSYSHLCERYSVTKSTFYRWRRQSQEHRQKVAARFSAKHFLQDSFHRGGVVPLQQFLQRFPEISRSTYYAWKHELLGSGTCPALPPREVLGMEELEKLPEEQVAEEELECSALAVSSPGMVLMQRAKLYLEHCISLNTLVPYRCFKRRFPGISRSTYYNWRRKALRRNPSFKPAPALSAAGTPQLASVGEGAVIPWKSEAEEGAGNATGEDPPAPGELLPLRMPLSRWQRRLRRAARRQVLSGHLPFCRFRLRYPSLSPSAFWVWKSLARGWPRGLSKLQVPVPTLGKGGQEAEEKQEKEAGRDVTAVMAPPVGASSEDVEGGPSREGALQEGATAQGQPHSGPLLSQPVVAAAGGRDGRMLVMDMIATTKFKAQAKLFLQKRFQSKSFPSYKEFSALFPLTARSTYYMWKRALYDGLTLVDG
From the text: as §1, §2

[9] = test system: ARPP19; experiment: TMT proteomics Kelly cells: ARPP19 abundance; conditions: 5 h vs DMSO, pomalidomide 1 µM
[10] = biological target: hsSALL4ZnF2 / DDB1∆B-CRBN (Homo sapiens, UniProt Q96SW2+Q9UJQ4); experiment: TR-FRET IMiD-dependent binding of SALL4ZnF2 to CRBN; conditions: DDB1∆B-CRBN 200 nM, hsSALL4ZnF2 100 nM
From the text: The TR-FRET signal of each data point was extracted by calculating the 520/490 nm ratios.

[11] = biological target: IKZF1 (Homo sapiens, UniProt Q13422+Q96SW2); experiment: TMT proteomics MM1s cells: IKZF1 abundance; conditions: 5 h vs DMSO, thalidomide 10 µM, lenalidomide 5 µM, pomalidomide 1 µM
[12] = biological target: T4, ZFP91 (Homo sapiens, UniProt Q96JP5+Q96SW2); experiment: TMT proteomics SK-N-DZ cells: ZFP91 abundance; conditions: 5 h vs DMSO, pomalidomide 1 µM, lenalidomide 5 µM, CC-220 0.1 µM, dBET57 1 µM
[13] = test system: HIST1H4A; HIST1H4F; HIST1H4D; HIST1H4J; HIST2H4A; HIST2H4B; HIST1H4H; HIST1H4C; HIST4H4; HIST1H4E; HIST1H4I; HIST1H4B; HIST1H4K; HIST1H4L; experiment: Rescue proteomics SK-N-DZ cells: histone H4 abundance; conditions: 1 µM pomalidomide, 5 h vs DMSO, rescue experiment (source data 13)
[14] = test system: GAP43; experiment: Rescue proteomics SK-N-DZ cells: GAP43 abundance; conditions: 1 µM pomalidomide, 5 h vs DMSO, rescue experiment (source data 13)
[15] = test system: SQRDL; SQOR; experiment: TMT proteomics MM1s cells: SQRDL abundance; conditions: 5 h vs DMSO, pomalidomide 1 µM
[16] = biological target: T5, ZBTB39 (Homo sapiens, UniProt O15060+Q96SW2); experiment: TMT proteomics H9 hESC: ZBTB39 abundance; type: cell-based; conditions: H9 hES cells, 5 h vs DMSO; thalidomide 10 µM, lenalidomide 5 µM, pomalidomide 1 µM
From the text: as §1, §2

[17] = biological target: T6, mmSALL4 (Mus musculus, UniProt Q8BX22); experiment: Western blot of mmSALL4 in mouse embryonic stem cells; type: cell-based; conditions: increasing concentrations, 24 h
T6 construct: endogenous in cells; host or cells: TC1 mouse embryonic stem cells
T6 sequence (Q8BX22 whole entry): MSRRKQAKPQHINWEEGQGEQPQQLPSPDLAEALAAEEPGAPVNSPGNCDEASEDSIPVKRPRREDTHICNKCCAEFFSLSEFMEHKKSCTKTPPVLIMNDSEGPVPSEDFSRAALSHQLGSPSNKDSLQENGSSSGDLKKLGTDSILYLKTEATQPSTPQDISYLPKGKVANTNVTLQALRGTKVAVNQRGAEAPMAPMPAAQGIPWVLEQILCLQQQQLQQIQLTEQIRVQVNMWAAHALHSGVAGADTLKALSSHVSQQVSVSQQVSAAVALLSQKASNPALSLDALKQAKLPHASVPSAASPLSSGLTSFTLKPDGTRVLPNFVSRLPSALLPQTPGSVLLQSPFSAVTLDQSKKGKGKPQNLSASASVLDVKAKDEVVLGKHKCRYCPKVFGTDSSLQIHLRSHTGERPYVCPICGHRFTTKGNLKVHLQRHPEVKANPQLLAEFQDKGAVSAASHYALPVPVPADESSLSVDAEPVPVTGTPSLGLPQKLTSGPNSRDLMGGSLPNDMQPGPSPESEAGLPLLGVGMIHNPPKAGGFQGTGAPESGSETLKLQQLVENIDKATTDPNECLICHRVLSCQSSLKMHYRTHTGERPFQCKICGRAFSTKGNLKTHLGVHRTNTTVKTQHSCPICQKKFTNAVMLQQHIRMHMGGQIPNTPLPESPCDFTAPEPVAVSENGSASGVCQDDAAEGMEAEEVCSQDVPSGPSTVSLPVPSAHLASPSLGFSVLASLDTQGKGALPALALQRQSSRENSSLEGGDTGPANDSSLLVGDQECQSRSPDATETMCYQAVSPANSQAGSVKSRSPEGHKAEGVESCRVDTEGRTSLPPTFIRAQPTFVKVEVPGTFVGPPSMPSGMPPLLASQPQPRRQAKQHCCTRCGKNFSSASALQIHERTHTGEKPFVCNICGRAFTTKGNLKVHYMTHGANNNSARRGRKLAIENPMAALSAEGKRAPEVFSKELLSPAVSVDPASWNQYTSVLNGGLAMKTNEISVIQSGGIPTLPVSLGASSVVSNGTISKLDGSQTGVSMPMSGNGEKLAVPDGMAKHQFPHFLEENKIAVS

[18] = test system: SALL4; experiment: Western blot of SALL4 in CRBN-/- Kelly and HEK293T cells; type: cell-based, human; conditions: increasing concentrations, 24 h
[19] = biological target: T4, ZFP91; experiment: TMT proteomics Kelly cells: ZFP91 abundance; conditions: 5 h vs DMSO, thalidomide 10 µM, lenalidomide 5 µM, pomalidomide 1 µM
[20] = biological target: T4, ZFP91; experiment: TMT proteomics MM1s cells: ZFP91 abundance; conditions: 5 h vs DMSO, thalidomide 10 µM, lenalidomide 5 µM, pomalidomide 1 µM
[21] = biological target: T1, SALL4; experiment: TMT proteomics H9 hESC: SALL4 abundance; type: cell-based; conditions: H9 hES cells, 5 h vs DMSO; thalidomide 10 µM, lenalidomide 5 µM, pomalidomide 1 µM
From the text: as §1, §2

[22] = biological target: T1, SALL4; conditions: Kelly cells
[23] = biological target: T2, RAB28; experiment: TMT proteomics SK-N-DZ cells: RAB28 abundance; conditions: 5 h vs DMSO, pomalidomide 1 µM, lenalidomide 5 µM, CC-220 0.1 µM, dBET57 1 µM
[24] = biological target: T5, ZBTB39; experiment: TMT proteomics SK-N-DZ cells: ZBTB39 abundance; conditions: 5 h vs DMSO, pomalidomide 1 µM, lenalidomide 5 µM, CC-220 0.1 µM, dBET57 1 µM
[25] = test system: TLN2; experiment: Rescue proteomics SK-N-DZ cells: TLN2 abundance; conditions: 1 µM pomalidomide, 5 h vs DMSO, rescue experiment (source data 13)
[26] = biological target: FAM83F (Homo sapiens, UniProt Q8NEG4); experiment: TMT proteomics H9 hESC: FAM83F abundance; type: cell-based; conditions: H9 hES cells, 5 h vs DMSO; thalidomide 10 µM, lenalidomide 5 µM, pomalidomide 1 µM
From the text: as §1, §2

[27] = typical dose 200–400 mg thalidomide, 25 mg lenalidomide, 2 mg pomalidomide, ref Chen et al., 2017, Hoffmann et al., 2013, Teo et al., 2004, cited from earlier work
[28] = biological target: IKZF3 (Homo sapiens, UniProt Q96SW2+Q9UKT9); experiment: TMT proteomics MM1s cells: IKZF3 abundance; conditions: 5 h vs DMSO, thalidomide 10 µM, lenalidomide 5 µM, pomalidomide 1 µM
[29] = biological target: ZNF98 (Homo sapiens, UniProt A6NK75+Q96SW2); experiment: TMT proteomics SK-N-DZ cells: ZNF98 abundance; conditions: 5 h vs DMSO, pomalidomide 1 µM, lenalidomide 5 µM, CC-220 0.1 µM, dBET57 1 µM
[30] = test system: CLIC4; experiment: TMT proteomics Kelly cells: CLIC4 abundance; conditions: 5 h vs DMSO, pomalidomide 1 µM
[31] = biological target: GZF1 (Homo sapiens, UniProt Q96SW2+Q9H116); experiment: TMT proteomics SK-N-DZ cells: GZF1 abundance; conditions: 5 h vs DMSO, pomalidomide 1 µM, lenalidomide 5 µM, CC-220 0.1 µM, dBET57 1 µM
[32] = test system: IMiD-dependent neo-substrates; experiment: TMT proteomics profiling of IMiD-dependent neo-substrates (hESC, Kelly, SK-N-DZ, MM1s); type: cell-based, human
From the text: as §1, §2

[33] = test system: COX5A; experiment: TMT proteomics Kelly cells: COX5A abundance; conditions: 5 h vs DMSO, pomalidomide 1 µM

Nc1cccc2c1C(=O)N(C1CCC(=O)NC1=O)C2=O (stereo not shown) [pomalidomide]
SALL4 protein levels (western blot) [1]: dose-dependent decrease in protein levels
logFC RTN4 [2]: -0.1703
logFC DTWD1 [3]: -1.822
logFC RAB28 [4]: -1.819
SALL4 protein levels (western blot) [5]: dose-dependent decrease in SALL4 protein levels
logFC ILF3 [6]: -0.0757
logFC SALL4 [7]: -1.873
logFC VRTN [8]: -0.4677
logFC ARPP19 [9]: 0.611
rank order in binding observed with ZnF2 [10]: Pom >Thal >> Len
logFC IKZF1 [11]: -2.094
logFC ZFP91 [12]: -1.944
logFC HIST1H4A (histone H4 genes) [13]: -0.1522
logFC GAP43 [14]: -0.1693
logFC SQRDL; SQOR [15]: 0.2873
logFC ZBTB39 [16]: -1.656
degradation of mmSALL4 in mESC [17]: does not promote degradation of mmSALL4
SALL4 degradation in CRBN-/- cells [18]: no degradation of SALL4 was observed
logFC ZFP91 [19]: -0.9865
logFC ZFP91 [20]: -1.964
logFC SALL4 [21]: -1.645
earliest time of SALL4 degradation post treatment ([22]; 1 or 5 µM pomalidomide): 4 h
time post washout at which SALL4 recovered to levels close to pre-treatment ([22]; pomalidomide 8 h then washout): 48 h
logFC RAB28 [23]: -1.455
logFC ZBTB39 [24]: -1.448
logFC TLN2 [25]: -0.06109
logFC FAM83F [26]: -1.309
plasma half-life (t1/2) [27]: ~ 9 h
Cmax ([27]; read-out: maximum plasma concentration (Cmax)): 50 nM
logFC IKZF3 [28]: -2.635
logFC ZNF98 [29]: -1.487
logFC CLIC4 [30]: -0.176
logFC GZF1 [31]: -0.5859
number of substrates identified (rank order) ([32]; H9 hESC proteomics): Thal < Len << Pom
proteins degraded upon treatment (besides SALL4) ([32]; H9 hESC, 5 h, 5 µM lenalidomide, 1 µM pomalidomide): ZFP91 ([An et al., 2017]) and the largely uncharacterized proteins ZBTB39, FAM83F, WIZ, RAB28, and DTWD1
substrates robustly degraded (each drug in addition to the preceding one) ([32]; proteomics across hESC, MM1s, Kelly, SK-N-DZ cells): ZBTB39, ZFP91, DTWD1, and ZNF653
logFC COX5A [33]: 0.352

Source: paper PMC6156078, “Thalidomide promotes degradation of SALL4, a transcription factor implicated in Duane Radial Ray syndrome” (eLife, 2018)
